This is an account of results in ChEMBL document CHEMBL1938267, “Capturing of the free cysteine residue in the ligand-binding site by affinity labeling of the ORL1 nociceptin receptor” (Bioorg Med Chem, 2011).

As a reminder, the EC50 is the concentration at which the effect is half-maximal. Usually IC50 stands for the concentration that inhibits the measured activity by half.

Calls of active or inactive are those of the source. No cut-off for these calls is given here. Peptide text beside a SMILES is read from it. * marks the point of attachment. Npys = O=[N+]([O-])c1cccnc1S*

Experiment [1] relates to COS-7. The experiment is described as follows: Binding affinity to rat Galpha-fused ORL1 receptor expressed in african green monkey COS7 cells at 100 uM after 90 mins. The experiment is classed as cell-based.
A short description of experiment [2]: Binding affinity to rat Galpha-fused ORL1 receptor expressed in african green monkey COS7 cells after 90 mins. Conditions: cos-7. The experiment is classed as cell-based.
Experiment [3] relates to COS-7. As to the kind of experiment: Binding affinity to rat Galpha-fused ORL1 receptor expressed in african green monkey COS7 cells at 5 uM after 90 mins. The experiment is classed as cell-based.
For experiment [4], the species on record is Rattus norvegicus. As to the kind of experiment: Agonist activity at rat Galpha-fused ORL1 receptor by [35S]GTPgammaS binding assay relative to nociceptin. The experiment is classed as functional. Background: GTPγS resists hydrolysis and so accumulates on activated G proteins.
In experiment [5] the test system is COS-7. As to the kind of experiment: Ratio of NEM EC50 to compound EC50 for binding affinity to rat Galpha-fused ORL1 receptor expressed in african green monkey COS7 cells. The experiment is classed as cell-based.
For experiment [6], the species on record is Rattus norvegicus. As to the kind of experiment: Antagonist activity at rat Galpha-fused ORL1 receptor assessed as reduction of receptor agonist nociceptin-induced [35S]GTPgammaS binding at 10 uM. The experiment is classed as functional.
Experiment [7] is filed under the species Rattus norvegicus. The experiment is described as follows: Agonist activity at rat Galpha-fused ORL1 receptor at 10 uM by [35S]GTPgammaS binding assay relative to nociceptin. The experiment is classed as functional.
The subject of experiment [8] is COS-7. As to the kind of experiment: Displacement of [3H]nociceptin from rat Galpha-fused ORL1 receptor expressed in african green monkey COS7 cells preincubated with 5 uM Cys(Npys)-RYYRIK-NH2 for 90 mins measured after 90 mins. The experiment is classed as cell-based. A general note: In a radioligand displacement assay an active substance lowers the binding of a labelled ligand.

Experiment [9] is described as follows: Displacement of [3H]nociceptin from rat Galpha-fused ORL1 receptor expressed in african green monkey COS7 cells. Conditions: cos-7. The experiment is classed as cell-based.
The subject of experiment [10] is COS-7. The experiment is described as follows: Displacement of [3H]nociceptin from rat Galpha-fused ORL1 receptor expressed in african green monkey COS7 cells preincubated with 100 uM N-ethylmaleimide for 90 mins measured after 90 mins. The experiment is classed as cell-based.

The molecule `CCN1C(=O)C=CC1=O` [N-ETHYLMALEIMIDE] showed an Activity in the experiment on COS-7 [1] of 65%. The molecule further had an EC50 in [2] of 43700 nM.

Turning to `CC[C@H](C)[C@H](NC(=O)[C@H](CCCNC(=N)N)NC(=O)[C@H](Cc1ccc(O)cc1)NC(=O)[C@H](Cc1ccc(O)cc1)NC(=O)[C@H](CCCNC(=N)N)NC(=O)[C@@H](N)CSSc1ncccc1[N+](=O)[O-])C(=O)N[C@@H](CCCCN)C(N)=O` (H-C(Npys)RYYRIK-NH2), the figures for the Activity in the experiment on COS-7 [3] and in the experiment filed under Rattus norvegicus [7] were 60% and 5%, respectively. Further, the outcome in the experiment filed under Rattus norvegicus [4] was inactive. The Ratio EC50 in the experiment with COS-7 [5] came to 23. Moreover, the result in the experiment filed under Rattus norvegicus [6] and in the experiment on COS-7 [8] was Active. This molecule also gave an EC50 in experiment [2] of 1900 nM. For the same molecule, the IC50 in experiment [9] stood at 133 nM.

Regarding `CC[C@H](C)[C@H](NC(=O)[C@H](CCCN=C(N)N)NC(=O)[C@H](Cc1ccc(O)cc1)NC(=O)[C@H](Cc1ccc(O)cc1)NC(=O)[C@H](CCCN=C(N)N)NC(C)=O)C(=O)N[C@@H](CCCCN)C(N)=O`, in the experiment on COS-7 [10], the outcome was Active. Besides, the Activity in the experiment listed under Rattus norvegicus [7] came to 60%.

As to `CC(C)C[C@H](NC(=O)[C@H](CCCCN)NC(=O)[C@H](CCCNC(=N)N)NC(=O)[C@H](C)NC(=O)[C@H](CO)NC(=O)[C@H](CCCCN)NC(=O)[C@H](CCCNC(=N)N)NC(=O)[C@H](C)NC(=O)CNC(=O)[C@@H](NC(=O)[C@H](Cc1ccccc1)NC(=O)CNC(=O)CNC(=O)[C@@H](N)Cc1ccccc1)[C@@H](C)O)C(=O)N[C@@H](C)C(=O)N[C@@H](CC(N)=O)C(=O)N[C@@H](CCC(N)=O)C(=O)O` [NOCICEPTIN], in the experiment with COS-7 [10], the outcome was Active. Also, the IC50 in experiment [9] turned out to be 0.52 nM.
